Results taken from US20260042731A1, “(2,4-DICHLOROPHENOXY)ACETIC ACID ANALOGS” (CORTEVA AGRISCIENCE LLC, priority 2022, published 2026).
Counter-ions that a name gives are not always drawn. Like-named read-outs stand apart in the source and are kept apart here.

Key:
[1] = system: glyphosate resistant Conyza canadensis (L.) (ERICA), horseweed; assay: Postemergence herbicide evaluation, growth of Conyza canadensis (ERICA); type: in vivo; conditions: Erigeron canadensis, post-emergence; for pest or weed control at 280 g/ha: 280 g ae/ha; for pest or weed control at 560 g/ha: 560 g ae/ha
[2] = Volatility of compounds measured by thermogravimetric analysis (TGA); type: physicochemical
[3] = system: Chenopodium album (CHEAL), common lambsquarters; assay: Postemergence herbicide evaluation, growth of Chenopodium album (CHEAL); type: in vivo; conditions: Chenopodium album, post-emergence; for pest or weed control at 280 g/ha: 280 g ae/ha; for pest or weed control at 560 g/ha: 560 g ae/ha
[4] = system: weeds ABUTH, AMATA, AMBEL, CHEAL, ERICA; assay: Postemergence herbicide evaluation, overall average % weed control across ABUTH, AMATA, AMBEL, CHEAL and ERICA; type: in vivo; conditions: post-emergence, average over five weeds, read-out: Overall Ave % Weed Control; for pest or weed control at 560 g/ha: 560 g ae/ha; for pest or weed control at 280 g/ha: 280 g ae/ha
[5] = system: Ambrosia artemisiifolia (AMBEL), common ragweed; assay: Postemergence herbicide evaluation, growth of Ambrosia artemisiifolia (AMBEL); type: in vivo; conditions: Ambrosia artemisiifolia, post-emergence; for pest or weed control at 280 g/ha: 280 g ae/ha; for pest or weed control at 560 g/ha: 560 g ae/ha
[6] = system: Amaranthus rudis (AMATA), tall water hemp; assay: Postemergence herbicide evaluation, growth of Amaranthus rudis (AMATA); type: in vivo; conditions: Amaranthus tuberculatus, post-emergence; for pest or weed control at 280 g/ha: 280 g ae/ha; for pest or weed control at 560 g/ha: 560 g ae/ha
[7] = system: Abutilon theophrasti (ABUTH), velvetleaf; assay: Postemergence herbicide evaluation, growth of Abutilon theophrasti (ABUTH); type: in vivo; conditions: Abutilon theophrasti, post-emergence; for pest or weed control at 280 g/ha: 280 g ae/ha; for pest or weed control at 560 g/ha: 560 g ae/ha
[8] = system: weeds ABUTH, AMATA, AMBEL, CHEAL, ERICA; assay: Postemergence herbicide evaluation, overall average % weed control (ABUTH, AMATA, AMBEL, CHEAL, ERICA); type: in vivo; conditions: post-emergence, read-out: Overall Ave % Weed Control; for pest or weed control at 280 g/ha: 280 g ae/ha
[9] = system: Velvetleaf (ABUTH); assay: Greenhouse post-emergence mixture trials, percent visual control; type: in vivo; conditions: Abutilon theophrasti, post-emergence, 504 h, read-out: % Control
[10] = system: Corn (ZEAMX); assay: as above; type: in vivo; conditions: Zea mays, post-emergence, 504 h, read-out: % Control
[11] = 168 h, 7 DAA, read-out: Ave. ERICA, percent reduction in plant size relative to the untreated control
[12] = 336 h, 14 DAA, percent reduction in plant size vs untreated control, read-out: Ave. ERICA
[13] = 504 h, 21 DAA, percent reduction in plant size vs untreated control, read-out: Ave. ERICA
[14] = 168 h, 7 DAA, read-out: Ave. CHEAL, percent reduction in plant size relative to the untreated control
[15] = 336 h, 14 DAA, percent reduction in plant size vs untreated control, read-out: Ave. CHEAL
[16] = 504 h, 21 DAA, percent reduction in plant size vs untreated control, read-out: Ave. CHEAL
[17] = 168 h, 7 DAA, read-out: AVE. AMBEL, percent reduction in plant size relative to the untreated control
[18] = 336 h, 14 DAA, percent reduction in plant size vs untreated control, read-out: AVE. AMBEL
[19] = 504 h, 21 DAA, percent reduction in plant size vs untreated control, read-out: AVE. AMBEL
[20] = 168 h, 7 DAA, read-out: Ave. AMATA, percent reduction in plant size relative to the untreated control
[21] = 336 h, 14 DAA, percent reduction in plant size vs untreated control, read-out: Ave. AMATA
[22] = 504 h, 21 DAA, percent reduction in plant size vs untreated control, read-out: Ave. AMATA
[23] = 168 h, 7 DAA, read-out: AVE. ABUTH, percent reduction in plant size relative to the untreated control
[24] = 336 h, 14 DAA, percent reduction in plant size vs untreated control, read-out: AVE. ABUTH
[25] = 504 h, 21 DAA, percent reduction in plant size vs untreated control, read-out: AVE. ABUTH
[26] = 168 h, 7 DAA, percent reduction in plant size vs untreated control, read-out: Ave. ERICA
[27] = 168 h, 7 DAA, percent reduction in plant size vs untreated control, read-out: Ave. CHEAL
[28] = 168 h, 7 DAA, percent reduction in plant size vs untreated control, read-out: AVE. AMBEL
[29] = 168 h, 7 DAA, percent reduction in plant size vs untreated control, read-out: Ave. AMATA
[30] = 168 h, 7 DAA, percent reduction in plant size vs untreated control, read-out: AVE. ABUTH

COc1ncc(OC(=O)COc2ccc(Cl)cc2Cl)cn1 [Compound E12]
pest or weed control at 280 g/ha [1, 11]: 75% | pest or weed control at 560 g/ha [1, 11]: 85% | pest or weed control at 280 g/ha ([1]; 336 h, 14 DAA, read-out: Ave. ERICA, percent reduction in plant size relative to the untreated control): 97.5% | pest or weed control at 560 g/ha [1, 12]: 100% | pest or weed control at 280 g/ha [1, 13]: 96.5% | pest or weed control at 560 g/ha [1, 13]: 100% | TGA Data (rate of weight loss, volatility) [2]: 0.04464 µg/min | pest or weed control at 280 g/ha [3, 14]: 77.5% | pest or weed control at 560 g/ha [3, 14]: 80% | pest or weed control at 280 g/ha ([3]; 336 h, 14 DAA, read-out: Ave. CHEAL, percent reduction in plant size relative to the untreated control): 90% | pest or weed control at 560 g/ha [3, 15]: 95% | pest or weed control at 280 g/ha [3, 16]: 87.5% | pest or weed control at 560 g/ha [3, 16]: 87.5% | pest or weed control at 560 g/ha ([4]; 336 h, 14 DAA): 85% | pest or weed control at 280 g/ha ([4]; 504 h, 21 DAA): 83.8% | pest or weed control at 560 g/ha ([4]; 504 h, 21 DAA): 87.5% | pest or weed control at 280 g/ha [5, 17]: 75% | pest or weed control at 560 g/ha [5, 17]: 77.5% | pest or weed control at 280 g/ha ([5]; 336 h, 14 DAA, read-out: AVE. AMBEL, percent reduction in plant size relative to the untreated control): 70% | pest or weed control at 560 g/ha [5, 18]: 90% | pest or weed control at 280 g/ha [5, 19]: 100% | pest or weed control at 560 g/ha [5, 19]: 100% | pest or weed control at 280 g/ha [6, 20]: 70% | pest or weed control at 560 g/ha [6, 20]: 75% | pest or weed control at 280 g/ha ([6]; 336 h, 14 DAA, read-out: Ave. AMATA, percent reduction in plant size relative to the untreated control): 80% | pest or weed control at 560 g/ha [6, 21]: 87.5% | pest or weed control at 280 g/ha [6, 22]: 70% | pest or weed control at 560 g/ha [6, 22]: 87.5% | pest or weed control at 280 g/ha [7, 23]: 50% | pest or weed control at 560 g/ha [7, 23]: 50% | pest or weed control at 280 g/ha ([7]; 336 h, 14 DAA, read-out: AVE. ABUTH, percent reduction in plant size relative to the untreated control): 60% | pest or weed control at 560 g/ha [7, 24]: 52.5% | pest or weed control at 280 g/ha [7, 25]: 65% | pest or weed control at 560 g/ha [7, 25]: 62.5% | pest or weed control at 280 g/ha ([8]; 168 h, 7 DAA): 69.5% | pest or weed control at 560 g/ha ([8]; 168 h, 560 g ae/ha, 7 DAA): 73.5% | pest or weed control at 280 g/ha ([8]; 336 h, 14 DAA): 79.5%

CP(=O)(O)CCC(N)C(=O)O (centres unmarked) [Glufosinate, 2-amino-4-(hydroxy(methyl)phosphinyl)butanoic acid ammonium salt]
pest or weed control at 200 g/ha [9]: 5% | plant injury at 200 g/ha [10]: 5% | plant injury at 900 g/ha [10]: 10%

O=C(COc1ccc(Cl)cc1Cl)Nc1ccnc(Cl)c1 [Compound D13]
pest or weed control at 280 g/ha [1, 26]: 80% | pest or weed control at 560 g/ha [1, 26]: 82.5% | pest or weed control at 280 g/ha [1, 12]: 92.5% | pest or weed control at 560 g/ha [1, 12]: 91.5% | pest or weed control at 280 g/ha [1, 13]: 97.5% | pest or weed control at 560 g/ha [1, 13]: 99% | TGA Data (rate of weight loss, volatility) [2]: 0.06009 µg/min | pest or weed control at 280 g/ha [3, 27]: 77.5% | pest or weed control at 560 g/ha [3, 27]: 75% | pest or weed control at 280 g/ha [3, 15]: 95% | pest or weed control at 560 g/ha [3, 15]: 98% | pest or weed control at 280 g/ha [3, 16]: 90% | pest or weed control at 560 g/ha [3, 16]: 92.5% | pest or weed control at 280 g/ha ([4]; 168 h, 7 DAA): 67% | pest or weed control at 560 g/ha ([4]; 168 h, 7 DAA): 68% | pest or weed control at 280 g/ha ([4]; 336 h, 14 DAA): 78.7% | pest or weed control at 560 g/ha ([4]; 336 h, 14 DAA): 79.9% | pest or weed control at 280 g/ha ([4]; 504 h, 21 DAA): 83.8% | pest or weed control at 560 g/ha ([4]; 504 h, 21 DAA): 74.2% | pest or weed control at 280 g/ha [5, 28]: 70% | pest or weed control at 560 g/ha [5, 28]: 75% | pest or weed control at 280 g/ha [5, 18]: 75% | pest or weed control at 560 g/ha [5, 18]: 91% | pest or weed control at 280 g/ha [5, 19]: 94% | pest or weed control at 560 g/ha [5, 19]: 50% | pest or weed control at 280 g/ha [6, 29]: 72.5% | pest or weed control at 560 g/ha [6, 29]: 75% | pest or weed control at 280 g/ha [6, 21]: 91% | pest or weed control at 560 g/ha [6, 21]: 84% | pest or weed control at 280 g/ha [6, 22]: 80% | pest or weed control at 560 g/ha [6, 22]: 92% | pest or weed control at 280 g/ha [7, 30]: 35% | pest or weed control at 560 g/ha [7, 30]: 32.5% | pest or weed control at 280 g/ha [7, 24]: 40% | pest or weed control at 560 g/ha [7, 24]: 35% | pest or weed control at 280 g/ha [7, 25]: 57.5% | pest or weed control at 560 g/ha [7, 25]: 37.5%
